Data on seven compounds can be found in patent US20220363710A1, “SMALL-MOLECULE COMPOUND HAVING A2A ADENOSINE RECEPTOR ANTAGONISM” (ACADEMY OF MILITARY MEDICAL SCIENCES, priority 2019, published 2022).

The target in series [1] is T1, (human) A2A adenosine receptor (Homo sapiens, UniProt P29274).
T1 construct: purchased PerkinElmer Research Products (Boston, Mass.); host or cells: HEK-293 cells, stably transfected; membrane preparation
The experiment in a line: Radioligand binding test ([3H]CGS21680 displacement, hA2A HEK-293 cell membranes). As to conditions: for IC50: [3H]-CGS 21680 25 nM, hA2A HEK-293 cell membrane, 25° C., 90 minutes, read-out: IC50 (nM), compounds binding to A2A adenosine receptor; for Ki: read-out: Ki (nM), inhibition constant for binding to A2A adenosine receptor. How it is done:
Cell membranes stably transfected with (human) A2A adenosine receptor were prepared in HEK-293 cells. The cell membranes were obtained from PerkinElmer Research Products (Boston, Mass.).
CGS 21680 (2-[p-(2-carboxyethyl)phenylethylamino]-5′-ethylcarboxamidoadenosine) was purchased from Selleck (Shanghai, CN).
The A2A adenosine receptors used were all expressed in the cell membranes. The compound was diluted 3 times serially with DMSO (Solarbio, D8371-250 ml) to generate compound source plates with 10 different concentrations (10 μM, 3.3 μM, 1.1 μM, 0.37 μM, 0.12 μM, 0.0412 μM, 0.0137 μM, 0.0046 μM, 0.0015 μM, 0.0005 μM), 250 nL of compound was added to 384-well Opti-plate, sealed with parafilm. […] (final 25 nM) was added to the diluted cell membrane and mixed well. 50 μL of the prepared dilution solution of cell membrane was transferred to the 384-well Opti-plate containing compound and incubated at 25° C. for 90 minutes. 100 μL of 0.5% Polyethyleneimine solution (PEI) was added to […]-96 GF/B filter plate, and soaked for 90 minutes at 4° C., then 500 μL of washing buffer/well (50 mM Tris-HCl, pH 7.4, 154 mM NaCl) was transferred with Cell Harvester to wash the […]-96 GF/B filter plate twice. The mixed system in the Opti-plate was transferred to the washed […]-96 GF/B filter plate, 500 μL of washing buffer/well (50 mM Tris-HCl, pH 7.4, 154 mM NaCl) was used to wash the […]-96 GF/B filter plate 9 times. Incubation was performed at 37° C. for 3 minutes. 40 μL of ULTIMA GOLD scintillation solution (Perkin Elmer, Cat #77-16061) was added to each well, CPM (count per minute) value was read by a MicroBeta liquid scintillation counter (PerkinElmer).

T1 sequence (P29274 whole entry): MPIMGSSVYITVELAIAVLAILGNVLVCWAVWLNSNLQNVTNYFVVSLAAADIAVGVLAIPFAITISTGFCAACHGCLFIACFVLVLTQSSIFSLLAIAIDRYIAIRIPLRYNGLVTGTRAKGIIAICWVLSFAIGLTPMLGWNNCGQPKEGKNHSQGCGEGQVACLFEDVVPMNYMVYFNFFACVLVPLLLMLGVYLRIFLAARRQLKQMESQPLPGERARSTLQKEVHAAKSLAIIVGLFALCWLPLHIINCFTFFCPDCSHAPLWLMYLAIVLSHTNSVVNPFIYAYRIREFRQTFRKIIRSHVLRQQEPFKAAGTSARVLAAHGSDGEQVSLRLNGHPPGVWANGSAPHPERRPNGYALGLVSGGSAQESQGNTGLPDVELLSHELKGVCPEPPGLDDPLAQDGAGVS

Consider `OC[C@H]1O[C@@H](n2cnc3c2ncn2c(-c4ccc(Br)cn4)nnc32)[C@H](O)[C@@H]1O` [Compound 11, (2R,3R,4S,5R)-2-{3-(5-bromopyridin-2-yl)-7H-[1,2,4]triazolo[3,4-i]purin-7-yl}-5-(hydroxymethyl)tetrahydrofuran-3,4-diol], for which the melting point – broadly, the temperature of the solid-liquid transition – was determined as 222 °C. In addition, in series [1], the IC50 (in general, the concentration at which inhibition is half-maximal) was over 10000 nM and the inhibition constant Ki – broadly, a measure of affinity in units of concentration, obtained from inhibition or displacement – is over 10000 nM.

For `OC[C@H]1O[C@@H](n2cnc3c2ncn2c(-c4ccc(C(F)(F)F)cc4C(F)(F)F)nnc32)[C@H](O)[C@@H]1O` [Compound 6, (2R,3R,4S,5R)-2-{3-[2,4-di(trifluoromethyl)phenyl]-7H-[1,2,4]triazolo[3,4-i]purin-7-yl}-5-(hydroxymethyl)tetrahydrofuran-3,4-diol], in series [1], the IC50 is over 10000 nM and the Ki was over 10000 nM.

The compound `OC[C@H]1O[C@@H](n2cnc3c2ncn2c(-c4ccc(OCc5ccccc5)c(OCc5ccccc5)c4)nnc32)[C@H](O)[C@@H]1O` [Compound 3, (2R,3R,4S,5R)-2-{3-[3,4-di(benzyloxy)phenyl]-7H-[1,2,4]triazolo[3,4-i]purin-7-yl}-5-(hydroxymethyl)tetrahydrofuran-3,4-diol] displayed a melting point of 116 °C. Also, in series [1], the concentration for half-maximal inhibition (IC50) is over 10000 nM and the Ki was over 10000 nM.

`OC[C@H]1O[C@@H](n2cnc3c2ncn2c(C4CCCCC4)nnc32)[C@H](O)[C@@H]1O` [Compound 13, (2R,3R,4S,5R)-2-{3-cyclohexyl-7H-[1,2,4]triazolo[3,4-i]purin-7-yl}-5-(hydroxymethyl)tetrahydrofuran-3,4-diol] registered a melting point of 130 °C. In addition, in series [1], the IC50 was over 10000 nM and the Ki was over 10000 nM.

`OC[C@H]1O[C@@H](n2cnc3c2ncn2c(-c4ccc(-c5ccccc5)cc4)nnc32)[C@H](O)[C@@H]1O` [Compound 8, (2R,3R,4S,5R)-2-{3-{[1,1′-biphenyl]-4-yl}-7H-[1,2,4]triazolo[3,4-i]purin-7-yl}-5-(hydroxymethyl)tetrahydrofuran-3,4-diol] returned a melting point of 280 °C. Also, in series [1], the 50% inhibitory concentration (IC50) was 7510 nM and the Ki came out at 3510 nM.

Compound `OC[C@H]1O[C@@H](n2cnc3c2ncn2c(-c4ccc(C(F)(F)F)cc4)nnc32)[C@@H](O)[C@H]1O` [Compound 10, (2R,3S,4R,5R)-2-{3-[4-(trifluoromethyl)phenyl]-7H-[1,2,4]triazolo[3,4-i]purin-7-yl}-5-(hydroxymethyl)tetrahydrofuran-3,4-diol] displayed a melting point of 124 °C. For the same compound, in series [1], the IC50 was over 10000 nM and the Ki was over 10000 nM.

Regarding `OC[C@H]1O[C@@H](n2cnc3c2ncn2c(-c4ccc(-c5ccccn5)cc4)nnc32)[C@@H](O)[C@H]1O` [Compound 7, (2R,3S,4R,5R)-2-{3-[4-(pyridin-2-yl)phenyl]-7H-[1,2,4]triazolo[3,4-i]purin-7-yl}-5-(hydroxymethyl)tetrahydrofuran-3,4-diol], the melting point is 172 °C. Also, in series [1], the half-maximal inhibitory concentration (IC50) is over 10000 nM and the Ki was over 10000 nM.
